Data on 1 compound can be found in article PMC9101188, “Human α-Defensin-6 Neutralizes Clostridioides difficile Toxins TcdA and TcdB by Direct Binding” (International Journal of Molecular Sciences, 2022).

SMILES strings stand for the structures.

Series [1] deals with SARS-CoV-2. The note with it: ref [55]; cited from earlier work. An excerpt:
There is increasing evidence that α-def-6 represents an outlier among the α-defensins, which is also noticeable in the context of bacterial toxins. Anti-toxin activities have already been described for several α-defensins.

Series [2] addresses T1, TcdB-DL488 (Clostridioides difficile, UniProt P18177).
T1 construct: The native toxins TcdA and TcdB from C. difficile VPI 10463 were expressed and purified; made in house; host or cells: C. difficile VPI 10463 (inferred from "native toxins")
In words: Aggregation of TcdB-DL488 over time in the absence of cells (fluorescence microscopy). The arrangement: species or system C. difficile VPI 10463. The note with it: α-def-6 6 µM, TcdB-DL488 30 nM in PBS, 37 °C. As to the method:
Cells were fixed and permeabilized. […] Scale bars correspond to 50 µm. […] TcdB was detected.
Simultaneously the same volume of PBS was exposed to DyLight^TM 488 NHS-Ester to serve as a negative control in experiments. To remove free fluorescence dye, the samples were rebuffered by passing through Zeba^TM Spin Desalting Columns via centrifugation.
Aggregation was allowed to proceed for 30 min at 37 °C. Images were taken every second for the first 5 min and every 10 s for additional 25 min. Images were processed using ImageJ.

Series [3] deals with TcdB glucosyltransferase. In words: UDP-Glo glucosyltransferase assay. In kind it is biochemical, C. difficile VPI 10463. Conditions: TcdB 200 pM, recombinant Rac1 5 µM, UDP-glucose 100 µM, 1 h, 37 °C, pH 7.5, luminescence (n ≥ 3). As to the method:
(§1) The flow rate was 25 µL/min. […] A representative gel is shown (n = 2). […] GAPDH served as the loading control. A representative Western blot is shown.
UDP-Glo™ Glucosyltransferase assay with UDP-Glucose (Promega Corporation, Madison, WI, USA) was performed according to the manufacturer’s protocol. Briefly, TcdB (200 pM) was incubated in glucosylation buffer (50 mM HEPES, 100 mM KCl, 2 mM MgCl2, 1 mM MnCl2, 100 mg/L BSA, pH 7.5) with various concentrations of the respective inhibitors in a final volume of 40 µL. 5 µM recombinant Rac1 was included in the samples as a substrate. […] Castanospermine (10 mM, Santa Cruz Biotechnology, Dallas, TX, USA) served as control for inhibition of glucosyltransferase activity of TcdB. To stop the reaction, three times 10 µL of each sample were transferred to a white half area 96 well microplate (Greiner Bio-One International GmbH, Kremsmünster, Austria) combined with 10 µL of UDP Detection Reagent and mixed at 1000 rpm for 30 s on a plate shaker (Titramax 1000, Heidolph Instruments GmbH & Co. KG, Schwabach, Germany). Luminescence was recorded after 15–60 min via a Tecan infinite M1000 Pro plate reader (Tecan, Männdorf, Switzerland) with an integration time of 750 ms.

Series [4] deals with Rac1. The class given is cell-based, African green monkey.
Series [5] deals with TcdB autoprotease domain. In words: In vitro autoprocessing of TcdB (InsP6-induced autoprotease activity). In kind it is biochemical, C. difficile VPI 10463. The note with it: TcdB 2 µg, InsP6 1 mM; α-def-6 3 µM, 9 µM; 1 h, 37 °C, pH 7.4; SDS-PAGE, Coomassie (n = 2). As to the method: as §1
The effects of α-def-6 on TcdB autoprocessing by its intrinsic cysteine protease activity were analyzed. […] Inositol hexakisphosphate (1 mM, Santa Cruz Biotechnology, Dallas, TX, USA) was added to the samples to induce autoprocessing. N-Ethylmaleimide (1 mM, Sigma Aldrich by Merck KGaA, Darmstadt, Germany) served as positive control for the inhibition of TcdB-autoprocessing. The reactions were stopped by addition of a Laemmli buffer and heat denaturation (95 °C). For the analysis, the samples were electrophoresed on 8% SDS polyacrylamide gels, and proteins were visualized by Coomassie staining.

Series [6] relates to TcdB glucosyltransferase. In words: In vitro glucosylation of Rac1 by TcdB (CaCo-2 lysate, Western blot). In kind it is biochemical, C. difficile VPI 10463. Conditions: CaCo-2 cell lysate 40 µg, TcdB 50 ng; α-def-6 up to 12 µM; 2 h, 37 °C, pH 7.5; Western blot (n = 4). As to the method:
as §1
To evaluate the potential effects of α-def-6 on TcdB glucosyltransferase activity, 40 µg of CaCo-2 cell lysate were used as a source of Rac1 and incubated with TcdB (50 ng) in glucosylation buffer (50 mM HEPES, 100 mM KCl, 2 mM MgCl2, 1 mM MnCl2, 100 mg/L BSA, pH 7.5) in a final volume of 20 µL. Two concentrations of α-def-6 (6 µM, 12 µM) were tested. Reactions were allowed to proceed for 2 h at 37 °C and stopped with the addition of a Laemmli buffer and heating for 10 min at 95 °C. The samples were loaded onto a 12.5% polyacrylamide gel and separated via SDS-PAGE followed by Western blotting. Unspecific binding sites were blocked with 5% (w/v) skim milk powder diluted in PBS with 0.1% (v/v) Tween®20 (PBS-T, pH 7.4) for 1 h at RT. The glucosylation status of Rac1 was assessed by probing with a mouse anti-Rac1-antibody (1:500, #610651, BD Biosciences, Franklin Lakes, NJ, USA) specifically directed against non-glucosylated Rac1 overnight at 4 °C. After washing, the membrane was incubated with a secondary horseradish-peroxidase (HRP)-conjugated goat-anti-mouse antibody (1:2500, #31430, Invitrogen by Thermo Fisher Scientific, Waltham, MA, USA) for 1 h at RT. Signals were detected using the ECL-system. […]
Background: A western blot detects proteins with antibodies after separation by electrophoresis.

In series [7] the test system is Rac1. The class given is cell-based, African green monkey. The source holds these as a separate data set.
Series [8] deals with Rac1. In kind it is cell-based, African green monkey. This is another data set of the same source.
Series [9] concerns CaCo-2 cells.
For series [10], the system named is Vero cells. The class given is cell-based, African green monkey.
Series [11] concerns CaCo-2 monolayer. The class given is cell-based, human.
Series [12] concerns zebrafish embryos. Conditions: in vivo.
In series [13] the test system is CaCo-2 cells. This is another data set of the same source.
The test system of series [14] is Vero cells. In kind it is cell-based, African green monkey. The source holds these as a separate data set.

T1 sequence (P18177 whole entry): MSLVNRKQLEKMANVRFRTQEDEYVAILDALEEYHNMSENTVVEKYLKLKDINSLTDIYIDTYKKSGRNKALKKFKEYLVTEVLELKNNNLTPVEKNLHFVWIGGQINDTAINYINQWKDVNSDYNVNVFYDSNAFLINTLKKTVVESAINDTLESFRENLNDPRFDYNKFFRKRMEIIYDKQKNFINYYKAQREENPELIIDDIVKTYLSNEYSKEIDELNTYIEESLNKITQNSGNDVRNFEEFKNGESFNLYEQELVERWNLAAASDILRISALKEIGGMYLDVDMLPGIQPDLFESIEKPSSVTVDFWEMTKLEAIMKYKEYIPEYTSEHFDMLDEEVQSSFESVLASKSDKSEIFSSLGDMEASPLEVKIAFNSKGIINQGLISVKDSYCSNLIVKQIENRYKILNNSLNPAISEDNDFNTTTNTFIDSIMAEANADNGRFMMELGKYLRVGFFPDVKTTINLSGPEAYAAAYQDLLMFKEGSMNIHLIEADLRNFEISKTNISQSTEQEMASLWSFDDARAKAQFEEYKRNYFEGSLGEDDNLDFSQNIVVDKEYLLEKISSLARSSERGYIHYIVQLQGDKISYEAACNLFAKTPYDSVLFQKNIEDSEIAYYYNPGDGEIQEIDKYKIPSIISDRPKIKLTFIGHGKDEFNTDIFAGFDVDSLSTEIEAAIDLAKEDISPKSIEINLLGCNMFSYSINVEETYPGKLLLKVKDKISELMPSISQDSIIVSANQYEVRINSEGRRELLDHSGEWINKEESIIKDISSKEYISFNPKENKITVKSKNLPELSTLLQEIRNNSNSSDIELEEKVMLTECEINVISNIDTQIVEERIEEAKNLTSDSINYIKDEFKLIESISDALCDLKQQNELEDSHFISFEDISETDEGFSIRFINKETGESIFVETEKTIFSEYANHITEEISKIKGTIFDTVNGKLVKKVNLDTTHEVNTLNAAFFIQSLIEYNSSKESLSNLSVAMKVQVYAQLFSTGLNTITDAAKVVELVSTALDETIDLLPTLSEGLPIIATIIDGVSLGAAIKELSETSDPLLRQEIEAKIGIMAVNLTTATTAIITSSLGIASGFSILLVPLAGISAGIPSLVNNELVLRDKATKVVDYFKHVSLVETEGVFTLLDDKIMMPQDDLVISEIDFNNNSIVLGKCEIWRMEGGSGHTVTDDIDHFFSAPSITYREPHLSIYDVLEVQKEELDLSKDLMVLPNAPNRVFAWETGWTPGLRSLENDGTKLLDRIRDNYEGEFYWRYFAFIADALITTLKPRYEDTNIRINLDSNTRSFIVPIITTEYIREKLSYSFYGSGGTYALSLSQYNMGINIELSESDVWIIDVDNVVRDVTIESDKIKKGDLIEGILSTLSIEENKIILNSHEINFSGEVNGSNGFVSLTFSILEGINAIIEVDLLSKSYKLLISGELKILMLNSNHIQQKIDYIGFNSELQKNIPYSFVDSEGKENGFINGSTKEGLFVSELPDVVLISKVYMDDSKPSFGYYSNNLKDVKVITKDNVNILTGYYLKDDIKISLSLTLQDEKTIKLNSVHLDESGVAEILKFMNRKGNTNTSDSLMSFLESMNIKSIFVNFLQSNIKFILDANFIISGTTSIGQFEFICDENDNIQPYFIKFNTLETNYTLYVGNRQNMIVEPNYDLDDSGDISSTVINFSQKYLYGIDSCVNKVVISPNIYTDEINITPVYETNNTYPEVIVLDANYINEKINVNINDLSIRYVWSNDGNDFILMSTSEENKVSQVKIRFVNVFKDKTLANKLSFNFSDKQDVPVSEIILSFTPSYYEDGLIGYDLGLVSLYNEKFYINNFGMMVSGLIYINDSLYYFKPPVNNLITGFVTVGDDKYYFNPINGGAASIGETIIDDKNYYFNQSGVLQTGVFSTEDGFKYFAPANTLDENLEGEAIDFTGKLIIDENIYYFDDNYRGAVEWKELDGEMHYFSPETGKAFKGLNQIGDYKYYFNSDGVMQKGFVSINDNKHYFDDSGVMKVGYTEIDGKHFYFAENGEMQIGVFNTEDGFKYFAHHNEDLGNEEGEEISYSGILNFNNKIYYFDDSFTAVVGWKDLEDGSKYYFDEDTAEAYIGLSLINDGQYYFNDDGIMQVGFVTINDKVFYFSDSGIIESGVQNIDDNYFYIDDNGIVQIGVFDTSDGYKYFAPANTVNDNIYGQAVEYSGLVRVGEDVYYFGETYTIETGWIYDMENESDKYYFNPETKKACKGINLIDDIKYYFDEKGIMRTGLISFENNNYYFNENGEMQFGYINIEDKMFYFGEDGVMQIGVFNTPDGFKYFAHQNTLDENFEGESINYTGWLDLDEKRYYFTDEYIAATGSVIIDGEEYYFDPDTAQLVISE

For `CC[C@H](C)[C@@H]1NC(=O)CNC(=O)[C@H](CCSC)NC(=O)[C@H](C(C)C)NC(=O)[C@H]([C@@H](C)O)NC(=O)[C@@H]2CSSC[C@@H]3NC(=O)[C@H](Cc4c[nH]cn4)NC(=O)[C@@H](NC(=O)[C@@H](NC(=O)[C@H](Cc4ccccc4)NC(=O)[C@H](C)N)[C@@H](C)O)CSSC[C@@H](C(=O)N[C@@H](CC(C)C)C(=O)O)NC(=O)[C@H](CSSC[C@H](NC(=O)[C@H](CO)NC(=O)[C@H](CCCNC(=N)N)NC(=O)[C@H](CCCNC(=N)N)NC3=O)C(=O)N[C@@H](Cc3ccc(O)cc3)C(=O)N[C@@H](CO)C(=O)N[C@@H]([C@@H](C)O)C(=O)N[C@@H](CCC(=O)O)C(=O)N[C@@H](Cc3ccc(O)cc3)C(=O)N[C@@H](CO)C(=O)N[C@@H](Cc3ccc(O)cc3)C(=O)NCC(=O)N[C@@H]([C@@H](C)O)C(=O)N2)NC(=O)[C@H](Cc2ccccc2)NC(=O)[C@H](CCCNC(=N)N)NC(=O)[C@H](Cc2c[nH]cn2)NC(=O)[C@H](CC(N)=O)NC1=O` [α-def-6], the “prevention of infection of cells with SARS-CoV-2” value in [1] was “cannot prevent the infection of cells with SARS-CoV-2”. In addition, in series [2], the “time of formation of toxin-defensin aggregates” value is “within a few seconds to minutes”. Further, in [2] (0.5 h, no cells (n ≥ 2)), the “formation of toxin-defensin complexes” value was “very fast and distinct formation of large toxin-defensin complexes”. In addition, the “inhibition of glucosyltransferase activity of TcdB” value in [3] is reported as “not able to inhibit glucosyltransferase activity”. Further, in series [4], the “glucosylation of Rac1 in intact cells” value was “less Rac1 was glucosylated”. In addition, in series [5], the “release of the glucosyltransferase domain by the autoprotease domain (effect of substance)” value is reported as “not affected”. The “inhibition of enzymatic activity of the glucosyltransferase domain of TcdB” value in [6] is “almost no inhibition”. Also, the “glucosylation of Rac1 by TcdA” value in [7] is reported as “clearly less Rac1 was glucosylated”. The “Rac1 modification by TcdA + TcdB” value in series [8] is listed as “diminished the toxin-mediated Rac1-modification”. Moreover, the “amount of rounded CaCo-2 cells, TcdA” value in series [9] is “reduced amount of rounded CaCo-2 cells was visible for at least 6 h”. In series [10], the “inhibition of toxin effects on cells, TcdA” value was “clear inhibition” and the “protection of cells against TcdA” value was “clear protection”. For the same compound, the “TEER, TcdA” value in series [11] is on record as “clear delay in TEER-reduction”. In series [12], the “effect on TcdB-induced cytotoxicity and cardiotoxicity” value was “very efficiently reversed both the cytotoxic and cardiotoxic effects of TcdB”; the “toxicity of α-def-6 alone” value is “did not show any toxicity”. In addition, in [13], the “amount of rounded CaCo-2 cells, TcdA + TcdB” value is on record as “reduced amount of rounded CaCo-2 cells was visible for at least 6 h”. In addition, in series [14], the “inhibition of toxin effects on cells, TcdA + TcdB” value is “clear inhibition” and the “protection of cells against TcdA + TcdB” value is “clear protection”.
